According to PubChem BioAssay (NCI):
Where “and” joins values, the source holds several entries; their conditions need not be identical. Equal entries are not always repeated.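 The compound was tested at five concentrations on cells cultured in 96-well plates, with a 48-hour exposure period. GI50: concentration for 50% inhibition of growth. TGI denotes the concentration required for complete inhibition of growth.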

What was measured:
Assay in all cases: NCI anticancer screen, dose series, 48 h
[1] = test system: UACC-257 melanoma
[2] = test system: IGROV1 ovarian
[3] = test system: CAKI-1 renal
[4] = test system: M14 melanoma
[5] = test system: MALME-3M melanoma
[6] = test system: CCRF-CEM leukemia
[7] = test system: MDA-MB-231 breast
[8] = test system: OVCAR-4 ovarian
[9] = test system: A549 NSCLC
[10] = test system: HOP-62 NSCLC

| Compound | GI50 [1] | TGI [1] | GI50 [2] | TGI [2] | GI50 [3] | TGI [3] | GI50 [4] | TGI [4] | GI50 [5] | TGI [5] | GI50 [6] | TGI [6] | GI50 [7] | TGI [7] | GI50 [8] | TGI [8] | GI50 [9] | TGI [9] | GI50 [10] | TGI [10] |
| --- | --- | --- | --- | --- | --- | --- | --- | --- | --- | --- | --- | --- | --- | --- | --- | --- | --- | --- | --- | --- |
| CC1SC(c2cccc(Oc3ccccc3)c2)N(CCc2cccs2)C1=O (centres undefined) | 1.25 µM | 3.3 µM | 1.07 µM | 3.33 µM | 0.519 µM | 3.37 µM | 1.02 µM | 2.34 µM | 1.73 µM | 3.58 µM | 0.747 µM | > 24 µM | 1.09 µM | 2.58 µM | 0.425 µM | 1.88 µM | 0.864 µM | 3.67 µM | 1.6 µM | 3.42 µM |
| Cn1c(N)c(N=Nc2ccc(S(N)(=O)=O)cc2)c(=O)n(C)c1=O | – | > 100 µM | – | > 100 µM | – | > 100 µM | – | > 100 µM | – | > 100 µM | – | > 100 µM | – | > 100 µM | – | > 100 µM | – | > 100 µM | – | > 100 µM |
| Cc1nn(-c2ccccc2)c2ncc3c(c12)C(=O)N(Cc1ccccc1)C3=O | > 100 µM | > 100 µM | 5.37 µM | 64.7 µM | 2.43 µM | 5.97 µM | 4.98 µM | > 100 µM | 5.24 µM | > 100 µM | 1.99 µM | 16.8 µM | 5.11 µM | 50.2 µM | 2.18 µM | 5.48 µM | 5.25 µM | > 100 µM | 3.73 µM | 13.8 µM |
| CN1CCN(Cc2ccc(NC(=O)c3cncc(C#Cc4c(N)ncc5ccc(F)cc45)c3)cc2C(F)(F)F)CC1 | 0.694 µM | 1.69 µM | 0.369 µM | 6.43 µM | 1.06 µM | 5.68 µM | 0.194 µM | 0.857 µM | 0.166 µM | 0.743 µM | 0.553 µM | 3.73 µM | 0.24 µM | 1.15 µM | 0.825 µM | 3.87 µM | 0.96 µM | 6.21 µM | 1.17 µM | 4.67 µM |
| COc1ccc(-c2nccn2-c2cc(OC)c(OC)c(OC)c2)cc1 | 73.1 µM | > 100 µM | 1.79 µM | > 100 µM | 1.22 µM | > 77.1 µM | 6 µM | > 100 µM | 1.96 µM | > 100 µM | 8.13 µM | > 100 µM | 7.62 µM | 90.3 µM | 15.3 µM | > 100 µM | 4.94 µM | > 100 µM | 13.7 µM | > 100 µM |
| C[CH2][Ge]1([CH2]C)[CH2]CC2(CCN(CCCN(C)C)C2)C[CH2]1 | 1.31 µM | 2.64 µM | 1.75 µM and 4.54 µM | 3.42 µM and 10.8 µM | 1.61 µM and 3.04 µM | 3.31 µM and 8.49 µM | 0.333 µM | 0.624 µM | 1.05 µM and 2.65 µM | 1.96 µM and 4.33 µM | 0.709 µM and 1.4 µM | 2.33 µM and 2.44 µM | 1.46 µM | 2.96 µM | 0.694 µM and 4.41 µM | 6.79 µM and 11.6 µM | 1.44 µM and 2.35 µM | 2.93 µM and 4.47 µM | 0.949 µM and 4.87 µM | 1.89 µM and 9.25 µM |
| CCS(=O)(=O)Nc1ccc(Oc2ccc(F)cc2F)c(-c2cn(C)c(=O)c3[nH]ccc23)c1 | 0.0448 µM | 23.1 µM | 0.0327 µM | 20.5 µM | – | – | < 0.0138 µM | 17 µM | 0.202 µM | 12.9 µM | 0.162 µM | > 60 µM | 0.0494 µM | 17.5 µM | 0.275 µM | 37 µM | 0.152 µM | 28.1 µM | < 0.0245 µM | 26.2 µM |
| CN(C)CCCn1c2c(c3ccc([N+](=O)[O-])cc3c1=O)C(=O)c1ccccc1-2 | 38.1 µM | > 100 µM | 4.98 µM | > 100 µM | 3.07 µM | 19.7 µM | 8.54 µM | > 100 µM | 7.86 µM | > 100 µM | 3.85 µM | 59 µM | 15.9 µM | 38.1 µM | 27.6 µM | > 100 µM | 17.5 µM | 46.1 µM | 5.67 µM | 20.8 µM |
| CCN(CC)CCCC(C)NC(=S)N/N=C(\C)c1ccccn1 (centres undefined) | 3.16 µM | 31.2 µM | 5.64 µM | > 100 µM | 4.56 µM | > 100 µM | 2.8 µM | 17.8 µM | 3.96 µM | > 100 µM | 4.64 µM | > 100 µM | 0.475 µM | > 100 µM | 3 µM | > 100 µM | 3.75 µM | > 100 µM | 5.86 µM | 83.1 µM |
| CCCCc1ccc(C(N)=O)nc1 | > 100 µM | > 100 µM | > 100 µM | > 100 µM | > 100 µM | > 100 µM | > 100 µM | > 100 µM | > 100 µM | > 100 µM | > 100 µM | > 100 µM | > 100 µM | > 100 µM | > 100 µM | > 100 µM | > 100 µM | > 100 µM | > 100 µM | > 100 µM |
| COc1cc2c(c(OC)c1OC)-c1c(c3ccc([N+](=O)[O-])cc3c(=O)n1CCCN=[N+]=[N-])C2=O | 0.0793 µM | 11.9 µM | 0.949 µM | 33.3 µM | 50.3 µM | > 100 µM | 34.4 µM | > 100 µM | 23.2 µM | 96.9 µM | > 100 µM | > 100 µM | 19.1 µM | 56.3 µM | 19.4 µM | 60.9 µM | 0.36 µM | > 100 µM | 15.4 µM | 38.1 µM |
| Cc1cc(N2CCOCC2)nc(N(CCNc2ccnc3cc(Cl)ccc23)Cc2cccs2)n1 | 1.88 µM | 3.6 µM | 1.96 µM | 4.97 µM | – | – | 1.79 µM | 3.41 µM | 2.06 µM | 3.72 µM | 2.02 µM | 6.1 µM | 1.97 µM | 3.64 µM | 2.37 µM | 7.59 µM | 3.08 µM | 12 µM | 2.44 µM | 6.52 µM |
| COc1ccc(/C=C2\CN(Cc3cn(CCCNc4ccnc5cc(Cl)ccc45)nn3)C/C(=C\c3ccc(OC)cc3)C2=O)cc1 | 8.28 µM | 23.3 µM | 4.86 µM | 17.6 µM | – | – | 4.15 µM | 16.2 µM | 2.09 µM | 5.37 µM | 2.39 µM | 7.01 µM | 5.39 µM | 28.4 µM | 7.37 µM | 28.1 µM | 5.07 µM | 19.5 µM | 19.4 µM | 35.5 µM |
| Cn1c(N)cc(=O)nc1N | – | – | – | > 100 µM | – | > 100 µM | – | > 100 µM | – | > 100 µM | – | > 100 µM | – | > 100 µM | – | > 100 µM | – | > 100 µM | – | > 100 µM |
| Cn1cnc2nc(Cl)nc(Cl)c21 | 7.84 µM | 24.8 µM | 2.47 µM | 37.7 µM | 1.08 µM | 3.26 µM | – | – | 13.6 µM | 50.3 µM | 0.84 µM | 22.1 µM | 4.26 µM | 33.2 µM | 4.7 µM | 17.6 µM | 3.68 µM | > 100 µM | 2.55 µM | > 100 µM |
| CC(=O)OC1C(OC/C2=C/C3[C@@H](C(C)C)CC=C(C)[C@@H]3CC(OC(=O)/C=C/c3cn(C)cn3)[C@]3(C)C=C[C@@]2(O)O3)OCC(O)C1O (some centres undefined) | 0.0188 µM | > 50 µM | 0.0737 µM | > 50 µM | 0.196 µM | > 13.2 µM | – | – | 0.0195 µM | > 50 µM | 0.0399 µM | > 50 µM | 0.421 µM | > 50 µM | 0.0586 µM | > 50 µM | 0.0206 µM | > 50 µM | 0.0246 µM | – |
| COc1ccc(C2CC(c3cccc(Nc4ccnc5cc(Cl)ccc45)c3)=NN2c2ccc(Cl)cc2)cc1 (centres undefined) | 6.4 µM | 51.4 µM | 18.8 µM | > 100 µM | 2.38 µM | > 100 µM | 0.752 µM | 11 µM | 22.7 µM | 59.5 µM | 1.84 µM | 43.4 µM | 4.84 µM | 65.2 µM | – | – | 4.7 µM | > 100 µM | 2.44 µM | 25.6 µM |
| COC(=O)c1cc2c([nH]c3ccccc32)c(-c2nc3cc(N(S(=O)(=O)c4ccc(C)cc4)S(=O)(=O)c4ccc(C)cc4)c(OC)cc3cc2CO)n1 | > 100 µM | > 100 µM | > 100 µM | > 100 µM | > 100 µM | > 100 µM | > 100 µM | > 100 µM | > 100 µM | > 100 µM | 10.3 µM | 32 µM | 78.6 µM | > 100 µM | > 100 µM | > 100 µM | > 100 µM | > 100 µM | – | – |
| COc1cc(OC)c(-c2oc3ccccc3c(=O)c2O)c(OC)c1 | – | > 100 µM | – | > 100 µM | – | > 40.5 µM | – | > 100 µM | – | 98.3 µM | – | > 100 µM | – | > 100 µM | – | – | – | > 100 µM | – | > 31.5 µM |
| COc1cccc2c1C(=N)c1c(O)c3c(c(O)c1C2=O)C[C@@](O)(C(C)=O)C[C@@H]3OC1CC(N)C(O)C(C)O1 (some centres undefined) | – | 5.01 µM and 12.1 µM and 6.67 µM | – | 6.39 µM and 9.25 µM | – | 1.37 µM and 1.03 µM and 4.86 µM | 0.705 µM and 0.206 µM | 4.58 µM and 1.59 µM | – | 1.83 µM and 5.14 µM and 2.21 µM | – | 0.473 µM and 0.975 µM | 0.445 µM | 2.18 µM | – | 7.58 µM and 7.84 µM and 8 µM | – | 0.926 µM and 1.46 µM and 1.01 µM | – | – |
